Reference: US20250114460A1, “NOVEL PLK1 DEGRADATION INDUCING COMPOUND” (UPPTHERA, INC., priority 2021, published 2025)

Columns and labels:
Type in all cases: cell-based
NCI-H526 cell line = assay: Cell viability assay for H526 cell (EZ-Cytox); conditions: Homo sapiens, NCI-H526, 120 h; H526 cells, 5 days, 3000 nM to 0.46 nM
Procedure, shortened: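 NCI-H526 cells were exposed to compound in CO2 incubator culture for 5 days. Viability was read by EZ-Cytox absorbance at 450 nm after 3 min shaking, giving IC50 values.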

PLK1 = target: T1, PLK1 (Homo sapiens, UniProt P53350); assay: Luciferase assay for PLK1 in HeLa LgBit (Plk1-HiBit KI) cell line; conditions: 300 nM compound, luminescence after 9 hours
T1 construct: endogenous in cells; host or cells: HeLa LgBit (Plk1-HiBit KI): HeLa stably expressing LgBit, with a CRISPR/Cas9 knock-in of HiBit at the endogenous PLK1 locus
Procedure, shortened: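 HeLa cells stably expressing LgBit, with HiBit knocked in at the C-terminus of endogenous Plk1, released from a 24 h 2 mM thymidine block and grown 18 h. Endurazine added, then compound at 300 nM; luminescence tracked in real time, expressed as ratio to DMSO.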

MRC-5 cell line = assay: Cell viability assay for MRC-5 cell line (EZ-Cytox); conditions: Homo sapiens, MRC5, 120 h; MRC-5 normal cell line, 5 days, 10000 nM to 1.52 nM; N.D. = no cytotoxicity until 10 μM; read-out: Activity: IC50 value of Exemplary Compound to MRC-5 cell line
Protocol: 4. Cell Viability Assay for MRC-5 Cell Line
(1) Culture of MRC-5 Cell Line
Passage of cultured cells was maintained within P15.
(2) Treatment of Compounds of the Present Invention
Then, it was cultured in 37° C.
(3) Cytotoxicity Experiment
CO2 incubator for 4 hours.

T1 sequence (P53350 whole entry): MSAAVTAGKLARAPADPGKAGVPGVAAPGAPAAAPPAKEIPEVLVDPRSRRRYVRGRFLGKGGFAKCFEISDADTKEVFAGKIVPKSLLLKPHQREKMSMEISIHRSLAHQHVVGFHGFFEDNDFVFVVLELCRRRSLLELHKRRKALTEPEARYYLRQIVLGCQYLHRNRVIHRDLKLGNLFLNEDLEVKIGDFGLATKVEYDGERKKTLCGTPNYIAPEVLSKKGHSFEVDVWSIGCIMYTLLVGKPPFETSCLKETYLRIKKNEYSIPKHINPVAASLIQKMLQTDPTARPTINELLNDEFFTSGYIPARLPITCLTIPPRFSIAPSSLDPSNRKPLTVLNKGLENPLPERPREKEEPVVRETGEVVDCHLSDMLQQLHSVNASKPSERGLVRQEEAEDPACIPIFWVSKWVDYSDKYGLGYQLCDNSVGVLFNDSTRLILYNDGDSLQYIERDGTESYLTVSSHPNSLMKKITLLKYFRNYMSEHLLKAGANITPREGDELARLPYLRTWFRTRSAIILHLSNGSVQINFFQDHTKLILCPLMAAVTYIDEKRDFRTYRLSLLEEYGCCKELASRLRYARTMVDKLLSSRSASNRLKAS

Activity: ratio of the luminescense value of each Exemplary Compound treatment group to DMSO treatment group (PLK1) | Compound | IC50 (NCI-H526 cell line) [nM] | IC50 (MRC-5 cell line) [µM]
++ (++<0.6) | COc1cc(C(=O)NN2CCC(N3CCN(c4ccc5c(c4)C(=O)N(C4CCC(=O)NC4=O)C5=O)CC3)C2)ccc1Nc1ncc2c(n1)N(C(C)C)CC(F)(F)C(=O)N2C (stereo not drawn) [Compound 154, 4-((7,7-difluoro-9-isopropyl-5-methyl-6-oxo-6,7,8,9-tetrahydro-5H-pyrimido[4,5-b][1,4]diazepin-2-yl)amino)-N-(3-(4-(2-(2,6-dioxopiperidin-3-yl)-1,3-dioxoisoindolin-5-yl)piperazin-1-yl)pyrrolidin-1-yl)-3-methoxybenzamide] | < 100 | > 10
++ (++<0.6) | COc1cc(C(=O)NN2CCC(N3CC4(CCN(c5cccc6c5C(=O)N(C5CCC(=O)NC5=O)C6=O)CC4)C3)CC2)c(F)cc1Nc1ncc2c(n1)N(C(C)C)CC(F)(F)C(=O)N2C (stereo not drawn) [Compound 210, 4-((7,7-difluoro-9-isopropyl-5-methyl-6-oxo-6,7,8,9-tetrahydro-5H-pyrimido[4,5-b][1,4]diazepin-2-yl)amino)-N-(4-(7-(2-(2,6-dioxopiperidin-3-yl)-1,3-dioxoisoindolin-4-yl)-2,7-diazaspiro[3.5]nonan-2-yl)piperidin-1-yl)-2-fluoro-5-methoxybenzamide] | < 50 | 18.2
++ (++<0.6) | COc1cc(C(=O)NC2CCN(C(=O)CCN3CCN(c4cccc5c4CN(C4CCC(=O)NC4=O)C5=O)CC3)CC2)ccc1Nc1ncc2c(n1)N(C1CCCC1)CC(F)(F)C(=O)N2C (stereo not drawn) [Compound 81, 4-((9-cyclopentyl-7,7-difluoro-5-methyl-6-oxo-6,7,8,9-tetrahydro-5H-pyrimido[4,5-b][1,4]diazepin-2-yl)amino)-N-(1-(3-(4-(2-(2,6-dioxopiperidin-3-yl)-1-oxoisoindolin-4-yl)piperazin-1-yl)propanoyl)piperidin-4-yl)-3-methoxybenzamide] | < 50 | > 10
+++ (+++: <0.3) | COc1cc(C(=O)NC2CCN(C(=O)COC3CCN(c4cccc5c4C(=O)N(C4CCC(=O)NC4=O)C5=O)CC3)CC2)ccc1Nc1ncc2c(n1)N(C1CCCC1)CC(F)(F)C(=O)N2C (stereo not drawn) [Compound 79, 4-((9-cyclopentyl-7,7-difluoro-5-methyl-6-oxo-6,7,8,9-tetrahydro-5H-pyrimido[4,5-b][1,4]diazepin-2-yl)amino)-N-(1-(2-((1-(2-(2,6-dioxopiperidin-3-yl)-1,3-dioxoisoindolin-4-yl)piperidin-4-yl)oxy)acetyl)piperidin-4-yl)-3-methoxybenzamide] | < 100 | > 10
++ (++<0.6) | COc1cc(C(=O)NN2CCC(N3CC4(CCN(c5cc6c(cc5F)C(=O)N(C5CCC(=O)NC5=O)C6=O)CC4)C3)CC2)c(F)cc1Nc1ncc2c(n1)N(C(C)C)CC(F)(F)C(=O)N2C (stereo not drawn) [Compound 217, 4-((7,7-difluoro-9-isopropyl-5-methyl-6-oxo-6,7,8,9-tetrahydro-5H-pyrimido[4,5-b][1,4]diazepin-2-yl)amino)-N-(4-(7-(2-(2,6-dioxopiperidin-3-yl)-6-fluoro-1,3-dioxoisoindolin-5-yl)-2,7-diazaspiro[3.5]nonan-2-yl)piperidin-1-yl)-2-fluoro-5-methoxybenzamide] | < 400 | 16.4
+++ (+++: <0.3) | COc1cc(C(=O)NC2CCN(C(=O)CCN3CCN(c4cccc5c4C(=O)N(C4CCC(=O)NC4=O)C5=O)CC3)CC2)ccc1Nc1ncc2c(n1)N(C1CCC1)CC(F)(F)C(=O)N2C (stereo not drawn) [Compound 68, 4-((9-cyclobutyl-7,7-difluoro-5-methyl-6-oxo-6,7,8,9-tetrahydro-5H-pyrimido[4,5-b][1,4]diazepin-2-yl)amino)-N-(1-(3-(4-(2-(2,6-dioxopiperidin-3-yl)-1,3-dioxoisoindolin-4-yl)piperazin-1-yl)propanoyl)piperidin-4-yl)-3-methoxybenzamide] | < 100 | > 10
+++ (+++: <0.3) | COc1cc(C(=O)NC2CCN(C(=O)CCN3CCN(c4cccc5c4C(=O)N(C4CCC(=O)NC4=O)C5=O)CC3)CC2)c(Cl)cc1Nc1ncc2c(n1)N(C1CCCC1)CC(F)(F)C(=O)N2C (stereo not drawn) [Compound 78, 2-chloro-4-((9-cyclopentyl-7,7-difluoro-5-methyl-6-oxo-6,7,8,9-tetrahydro-5H-pyrimido[4,5-b][1,4]diazepin-2-yl)amino)-N-(1-(3-(4-(2-(2,6-dioxopiperidin-3-yl)-1,3-dioxoisoindolin-4-yl)piperazin-1-yl)propanoyl)piperidin-4-yl)-5-methoxybenzamide] | < 100 | > 10
++ (++<0.6) | COc1cc(C(=O)NC2CCN(CCCN3CCN(c4cccc5c4C(=O)N(C4CCC(=O)NC4=O)C5=O)CC3)CC2)ccc1Nc1ncc2c(n1)N(C1CCCC1)CC(F)(F)C(=O)N2C (stereo not drawn) [Compound 60, 4-((9-cyclopentyl-7,7-difluoro-5-methyl-6-oxo-6,7,8,9-tetrahydro-5H-pyrimido[4,5-b][1,4]diazepin-2-yl)amino)-N-(1-(3-(4-(2-(2,6-dioxopiperidin-3-yl)-1,3-dioxoisoindolin-4-yl)piperazin-1-yl)propyl)piperidin-4-yl)-3-methoxybenzamide] | < 30 | 4.19
++ (++<0.6) | COc1cc(C(=O)NN2CCC(CCN3CCN(c4cccc5c4C(=O)N(C4CCC(=O)NC4=O)C5=O)CC3)C2)ccc1Nc1ncc2c(n1)N(C1CCCC1)CC(F)(F)C(=O)N2C (stereo not drawn) [Compound 151, 4-((9-cyclopentyl-7,7-difluoro-5-methyl-6-oxo-6,7,8,9-tetrahydro-5H-pyrimido[4,5-b][1,4]diazepin-2-yl)amino)-N-(3-(2-(4-(2-(2,6-dioxopiperidin-3-yl)-1,3-dioxoisoindolin-4-yl)piperazin-1-yl)ethyl)pyrrolidin-1-yl)-3-methoxybenzamide] | < 50 | > 10
++ (++<0.6) | COc1cc(C(=O)NN2CCC(CN3CCN(c4ccc5c(c4)C(=O)N(C4CCC(=O)NC4=O)C5=O)CC3)CC2)ccc1Nc1ncc2c(n1)N(C1CCCC1)CC(F)(F)C(=O)N2C (stereo not drawn) [Compound 148, 4-((9-cyclopentyl-7,7-difluoro-5-methyl-6-oxo-6,7,8,9-tetrahydro-5H-pyrimido[4,5-b][1,4]diazepin-2-yl)amino)-N-(4-((4-(2-(2,6-dioxopiperidin-3-yl)-1,3-dioxoisoindolin-5-yl)piperazin-1-yl)methyl)piperidin-1-yl)-3-methoxybenzamide] | < 50 | 13.2
++ (++<0.6) | COc1cc(C(=O)NC2CC(N(C)CCC3CCN(c4cccc5c4C(=O)N(C4CCC(=O)NC4=O)C5=O)CC3)C2)ccc1Nc1ncc2c(n1)N(C1CCCC1)CC(F)(F)C(=O)N2C (stereo not drawn) [Compound 107, 4-((9-cyclopentyl-7,7-difluoro-5-methyl-6-oxo-6,7,8,9-tetrahydro-5H-pyrimido[4,5-b][1,4]diazepin-2-yl)amino)-N-(3-((2-(1-(2-(2,6-dioxopiperidin-3-yl)-1,3-dioxoisoindolin-4-yl)piperidin-4-yl)ethyl)(methyl)amino)cyclobutyl)-3-methoxybenzamide] | < 100 | > 10
+++ (+++: <0.3) | COc1cc(C(=O)NC2CCN(C(=O)CCC3CCN(c4cccc5c4C(=O)N(C4CCC(=O)NC4=O)C5=O)CC3)CC2)ccc1Nc1ncc2c(n1)N(C1CCCC1)CC(F)(F)C(=O)N2C (stereo not drawn) [Compound 62, 4-((9-cyclopentyl-7,7-difluoro-5-methyl-6-oxo-6,7,8,9-tetrahydro-5H-pyrimido[4,5-b][1,4]diazepin-2-yl)amino)-N-(1-(3-(1-(2-(2,6-dioxopiperidin-3-yl)-1,3-dioxoisoindolin-4-yl)piperidin-4-yl)propanoyl)piperidin-4-yl)-3-methoxybenzamide] | < 100 | > 10
++ (++<0.6) | COc1cc(C(=O)N(C)C2CCN(C(=O)CCN3CCN(c4cccc5c4C(=O)N(C4CCC(=O)NC4=O)C5=O)CC3)CC2)ccc1Nc1ncc2c(n1)N(C1CCCC1)CC(F)(F)C(=O)N2C (stereo not drawn) [Compound 77, 4-((9-cyclopentyl-7,7-difluoro-5-methyl-6-oxo-6,7,8,9-tetrahydro-5H-pyrimido[4,5-b][1,4]diazepin-2-yl)amino)-N-(1-(3-(4-(2-(2,6-dioxopiperidin-3-yl)-1,3-dioxoisoindolin-4-yl)piperazin-1-yl)propanoyl)piperidin-4-yl)-3-methoxy-N-methylbenzamide] | < 100 | > 10
